{
  "source": "ChEMBL document CHEMBL4837239",
  "about": "“Identification of Thieno[3,2-d]pyrimidine Derivatives as Dual Inhibitors of Focal Adhesion Kinase and FMS-like Tyrosine Kinase 3” (J Med Chem, 2021)",
  "key": {"[1]": {"target": "T1, Focal adhesion kinase 1 (Homo sapiens, UniProt Q05397)", "test": "Inhibition of recombinant FAK (unknown origin) by radiometric kinase assay"}, "[2]": {"test_system": "HCT-116", "test": "Antiproliferative activity against human HCT-116 cells assessed as growth inhibition measured after 72 hrs by CellTiter-Glo assay", "assay_type": "functional", "settings": "Homo sapiens, HCT-116"}, "[3]": {"test_system": "MDA-MB-231", "test": "Antiproliferative activity against human MDA-MB-231 cells assessed as growth inhibition measured after 72 hrs by CellTiter-Glo assay", "assay_type": "functional", "settings": "Homo sapiens, MDA-MB-231"}, "[4]": {"test": "Metabolic stability in human liver microsomes assessed as compound remaining at 1 uM measured after 1 hr", "assay_type": "ADME, Microsome", "settings": "read-out: Stabilty"}, "[5]": {"target": "CYP2C9 (Homo sapiens, UniProt P11712)", "sequence (P11712 whole entry)": "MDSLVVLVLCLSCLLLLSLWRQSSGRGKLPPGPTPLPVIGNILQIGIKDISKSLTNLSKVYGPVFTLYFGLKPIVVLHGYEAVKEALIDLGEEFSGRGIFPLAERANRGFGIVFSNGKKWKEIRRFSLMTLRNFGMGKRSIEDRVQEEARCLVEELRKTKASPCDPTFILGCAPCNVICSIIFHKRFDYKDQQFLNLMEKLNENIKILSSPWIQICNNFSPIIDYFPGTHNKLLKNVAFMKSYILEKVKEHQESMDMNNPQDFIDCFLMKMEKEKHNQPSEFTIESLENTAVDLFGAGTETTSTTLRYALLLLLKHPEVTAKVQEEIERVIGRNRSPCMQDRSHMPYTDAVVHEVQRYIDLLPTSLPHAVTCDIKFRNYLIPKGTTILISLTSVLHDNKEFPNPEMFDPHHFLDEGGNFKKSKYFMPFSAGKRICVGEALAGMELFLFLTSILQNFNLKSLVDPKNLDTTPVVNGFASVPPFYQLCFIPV", "test": "Inhibition of CYP2C9 (unknown origin) at 10 uM relative to control", "assay_type": "ADME"}, "[6]": {"target": "T1, Focal adhesion kinase 1", "test": "Inhibition of FAK (unknown origin)"}, "[7]": {"target": "T2, Cyclin-dependent kinase 4 (Homo sapiens, UniProt P11802)", "T2 sequence (P11802 whole entry)": "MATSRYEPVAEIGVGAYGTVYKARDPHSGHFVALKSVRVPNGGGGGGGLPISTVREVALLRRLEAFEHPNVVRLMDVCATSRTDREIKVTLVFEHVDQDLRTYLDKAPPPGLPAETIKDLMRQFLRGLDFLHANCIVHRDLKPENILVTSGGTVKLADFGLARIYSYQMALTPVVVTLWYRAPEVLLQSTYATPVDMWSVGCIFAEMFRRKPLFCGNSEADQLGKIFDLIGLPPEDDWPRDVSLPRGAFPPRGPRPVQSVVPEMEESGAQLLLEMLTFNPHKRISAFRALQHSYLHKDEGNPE", "test": "Inhibition of CDK4 (unknown origin)"}, "[8]": {"target": "Epithelial discoidin domain-containing receptor 1 (Homo sapiens, UniProt Q08345)", "sequence (Q08345 whole entry, the tested form may be a part)": "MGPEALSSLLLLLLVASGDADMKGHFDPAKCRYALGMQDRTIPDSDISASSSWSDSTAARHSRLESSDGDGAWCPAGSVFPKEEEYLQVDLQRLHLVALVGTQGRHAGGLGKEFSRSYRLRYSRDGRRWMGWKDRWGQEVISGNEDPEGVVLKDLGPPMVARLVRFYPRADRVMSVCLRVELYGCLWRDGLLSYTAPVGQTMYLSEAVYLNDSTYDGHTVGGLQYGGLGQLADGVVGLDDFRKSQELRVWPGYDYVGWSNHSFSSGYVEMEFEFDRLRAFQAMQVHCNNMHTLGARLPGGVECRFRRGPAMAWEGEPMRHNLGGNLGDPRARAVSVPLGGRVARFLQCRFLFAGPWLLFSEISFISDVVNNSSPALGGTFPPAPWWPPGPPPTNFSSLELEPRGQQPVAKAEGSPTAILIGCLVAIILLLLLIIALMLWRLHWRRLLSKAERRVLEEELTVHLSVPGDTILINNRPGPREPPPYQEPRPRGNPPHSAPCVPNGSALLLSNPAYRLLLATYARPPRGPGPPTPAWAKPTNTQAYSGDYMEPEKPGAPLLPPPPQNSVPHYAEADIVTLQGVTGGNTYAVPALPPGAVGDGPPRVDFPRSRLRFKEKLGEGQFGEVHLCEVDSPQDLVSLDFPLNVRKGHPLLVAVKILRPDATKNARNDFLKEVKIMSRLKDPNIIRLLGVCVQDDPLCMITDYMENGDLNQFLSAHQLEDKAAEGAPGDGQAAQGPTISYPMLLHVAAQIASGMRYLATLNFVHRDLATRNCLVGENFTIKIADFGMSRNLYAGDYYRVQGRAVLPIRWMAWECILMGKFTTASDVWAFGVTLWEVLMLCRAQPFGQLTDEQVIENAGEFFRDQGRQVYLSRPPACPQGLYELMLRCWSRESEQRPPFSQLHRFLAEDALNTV", "test": "Inhibition of DDR1 (unknown origin) at 0.1 uM"}, "[9]": {"target": "Proto-oncogene tyrosine-protein kinase Src (Homo sapiens, UniProt P12931)", "sequence (P12931 2-536 limits assumed)": "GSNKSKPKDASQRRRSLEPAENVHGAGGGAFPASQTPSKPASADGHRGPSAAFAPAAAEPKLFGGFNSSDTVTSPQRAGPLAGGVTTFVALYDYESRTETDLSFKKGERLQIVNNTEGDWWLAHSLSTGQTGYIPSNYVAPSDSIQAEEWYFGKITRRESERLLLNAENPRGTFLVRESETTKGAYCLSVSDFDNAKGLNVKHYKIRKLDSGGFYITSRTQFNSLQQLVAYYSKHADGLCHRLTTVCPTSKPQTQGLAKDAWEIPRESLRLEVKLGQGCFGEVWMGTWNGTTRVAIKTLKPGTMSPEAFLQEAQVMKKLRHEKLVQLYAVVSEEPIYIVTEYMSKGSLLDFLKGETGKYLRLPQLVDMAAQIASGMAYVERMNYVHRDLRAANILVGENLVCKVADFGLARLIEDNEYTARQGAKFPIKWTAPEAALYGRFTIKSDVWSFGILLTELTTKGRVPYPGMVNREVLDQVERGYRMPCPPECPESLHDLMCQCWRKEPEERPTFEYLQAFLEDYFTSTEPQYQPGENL", "test": "Inhibition of Src (unknown origin) at 0.1 uM"}, "[10]": {"target": "T2, Cyclin-dependent kinase 4", "test": "Inhibition of CDK4 (unknown origin) at 0.1 uM"}, "[11]": {"test_system": "Prostatic carcinoma cell", "test": "Antiproliferative activity against human prostate cancer cells assessed as growth inhibition measured after 72 hrs by MTT assay", "assay_type": "functional, cell-based"}, "[12]": {"test_system": "BaF3", "test": "Antiproliferative activity against mouse Ba/F3 cells harbouring FLT3 D835Y mutant assessed as growth inhibition measured after 72 hrs by CellTiter-Glo assay", "assay_type": "functional", "settings": "Mus musculus, BaF3"}, "[13]": {"test_system": "BaF3", "test": "Antiproliferative activity against mouse Ba/F3 cells harbouring FLT3 ITD F691L mutant assessed as growth inhibition measured after 72 hrs by CellTiter-Glo assay", "assay_type": "functional", "settings": "Mus musculus, BaF3"}, "[14]": {"test_system": "BaF3", "test": "Antiproliferative activity against mouse Ba/F3 cells assessed as growth inhibition measured after 72 hrs by CellTiter-Glo assay", "assay_type": "functional", "settings": "Mus musculus, BaF3"}, "[15]": {"target": "T1, Focal adhesion kinase 1", "test": "Inhibition of FAK autophosphorylation at Y925 in human HCT-116 cells at 5 uM incubated for 24 hrs by Western blot analysis", "assay_type": "cell-based"}, "[16]": {"test_system": "MDA-MB-231", "test": "Induction of apoptosis in human MDA-MB-231 cells assessed as cleaved PARP at 0.1 to 10 uM incubated for 24 hrs by Western blot analysis", "assay_type": "functional, cell-based", "settings": "dose 0.1-10 µM"}, "[17]": {"test_system": "MDA-MB-231", "test": "In vivo antitumor activity against human MDA-MB-231 cells xenografted in Balb/c mouse assessed as reduction in tumor weight at 40 to 70 mg/kg, po once daily measured for 16 days", "assay_type": "functional, organism-based", "settings": "dose 40-70 mg/kg, time 16.0 day"}, "[18]": {"test": "Antimigratory activity in human HCT-116 cells assessed as suppression of migration at 1 uM measured after 12 hrs by scratch wound healing assay", "assay_type": "functional"}, "[19]": {"test_system": "MDA-MB-231", "test": "Antimigratory activity in human MDA-MB-231 cells assessed as suppression of migration at 1 uM measured after 12 hrs by scratch wound healing assay", "assay_type": "functional"}, "[20]": {"test_system": "MDA-MB-231", "test": "Antiinvasive activity in human MDA-MB-231 cells assessed as suppression of invasion measured after 12 hrs by trans well experiment", "assay_type": "functional", "settings": "dose 0.5-1 µM, at 0.5 to 1 µM"}, "[21]": {"test_system": "MDA-MB-231", "test": "Disruption of focal adhesion of human MDA-MB-231 cells assessed as decrease in vinculin measured after 3 hrs by Alexa Fluor 488-conjugated Ab based fluorescence analysis", "assay_type": "functional, cell-based", "settings": "dose 1-10 µM"}, "[22]": {"test_system": "MDA-MB-231", "test": "Antimetastatic activity against human MDA-MB-231 cells expressing firefly luciferase xenografted NSG orthotopic mouse model assessed as reduction in luminescence intensity at 40 to 70 mg/kg, po once daily measured for 2 weeks", "assay_type": "functional, organism-based", "settings": "dose 40-70 mg/kg"}, "[23]": {"test_system": "MDA-MB-231", "test": "Antimetastatic activity against human MDA-MB-231 cells expressing firefly luciferase xenografted NSG orthotopic mouse model assessed as reduction in luminescence intensity at chest region at 70 mg/kg, po once daily measured for 2 weeks", "assay_type": "functional, organism-based"}, "[24]": {"test": "Toxicity in NSG orthotopic mouse xenografted with human MDA-MB-231 cells assessed as adverse effect at 40 to 70 mg/kg, po once daily measured for 2 weeks", "assay_type": "organism-based", "settings": "in vivo, 336 h, dose 40-70 mg/kg"}, "[25]": {"test_system": "T3, Receptor-type tyrosine-protein kinase FLT3 (Homo sapiens), P36888 [D835Y]", "T3 sequence (whole entry)": "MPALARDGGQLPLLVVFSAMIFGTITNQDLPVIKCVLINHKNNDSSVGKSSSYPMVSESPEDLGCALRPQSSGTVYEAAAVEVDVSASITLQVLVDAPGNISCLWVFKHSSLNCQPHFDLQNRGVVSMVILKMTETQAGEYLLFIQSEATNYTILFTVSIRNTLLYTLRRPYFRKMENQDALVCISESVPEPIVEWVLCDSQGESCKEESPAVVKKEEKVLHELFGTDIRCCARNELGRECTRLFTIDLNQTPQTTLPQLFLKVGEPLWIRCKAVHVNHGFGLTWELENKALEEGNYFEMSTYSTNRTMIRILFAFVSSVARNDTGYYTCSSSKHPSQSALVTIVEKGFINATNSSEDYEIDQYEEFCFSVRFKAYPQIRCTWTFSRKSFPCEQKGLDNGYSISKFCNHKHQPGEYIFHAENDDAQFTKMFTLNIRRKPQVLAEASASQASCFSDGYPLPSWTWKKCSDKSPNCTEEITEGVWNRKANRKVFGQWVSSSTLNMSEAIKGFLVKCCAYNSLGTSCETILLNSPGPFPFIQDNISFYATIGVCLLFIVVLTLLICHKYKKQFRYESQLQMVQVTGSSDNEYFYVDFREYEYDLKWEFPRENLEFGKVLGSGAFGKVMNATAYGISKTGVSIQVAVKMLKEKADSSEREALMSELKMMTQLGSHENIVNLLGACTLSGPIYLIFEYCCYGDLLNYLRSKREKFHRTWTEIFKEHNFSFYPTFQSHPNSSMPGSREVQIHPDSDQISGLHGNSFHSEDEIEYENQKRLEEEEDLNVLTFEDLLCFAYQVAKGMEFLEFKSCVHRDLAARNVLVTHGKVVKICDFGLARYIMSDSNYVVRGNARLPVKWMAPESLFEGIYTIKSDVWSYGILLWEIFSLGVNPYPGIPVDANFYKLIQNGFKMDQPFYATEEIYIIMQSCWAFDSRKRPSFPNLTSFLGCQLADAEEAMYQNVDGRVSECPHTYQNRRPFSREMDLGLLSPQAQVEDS", "test": "Inhibition of FLT3-D835Y mutant (unknown origin) expressed in mouse BaF3 cells assessed as decrease in ERK phosphorylation at 1 nM by Western blot analysis", "assay_type": "cell-based"}, "[26]": {"test_system": "T3, Receptor-type tyrosine-protein kinase FLT3 (Homo sapiens), P36888 [D835Y]", "test": "Inhibition of FLT3-D835Y mutant (unknown origin) expressed in mouse BaF3 cells assessed as decrease in STAT5 phosphorylation at 1 nM by Western blot analysis", "assay_type": "cell-based"}, "[27]": {"test_system": "T3, Receptor-type tyrosine-protein kinase FLT3 (Homo sapiens), P36888 [D835Y]", "test": "Inhibition of FLT3-D835Y mutant (unknown origin) expressed in mouse Ba/F3 cells assessed as decrease in ERK phosphorylation at 10 nM by Western blot analysis", "assay_type": "cell-based", "settings": "BaF3"}, "[28]": {"test": "Toxicity in mouse xenografted with human MV4-11 cells assessed as change in body weight at 20 to 50 mg/kg, po", "assay_type": "organism-based", "settings": "in vivo, dose 20-50 mg/kg"}},
  "note": "Activity calls are given as the source filed them. No cut-off for these calls is given here.",
  "data": [
    {"smiles": "CCN1CCN(c2ccc(Nc3ncc4scc(-c5cccc(NS(C)(=O)=O)c5)c4n3)cc2)CC1", "values": [
      {"measurement": "IC50", "setting": "[1]", "value": 7, "unit": "nM"},
      {"measurement": "GI50", "setting": "[2]", "value": 160, "unit": "nM"},
      {"measurement": "GI50", "setting": "[3]", "value": 470, "unit": "nM"},
      {"measurement": "remaining at 1 h, 1 µM", "setting": "[4]", "value": 80.2, "unit": "%"},
      {"measurement": "inhibition at 10 µM", "setting": "[5]", "value": 93.6, "unit": "%"},
      {"measurement": "IC50", "setting": "[6]", "value": 9.7, "unit": "nM"},
      {"measurement": "IC50", "setting": "[7]", "value": 8.5, "unit": "nM"},
      {"measurement": "inhibition", "setting": "[8]", "value": 97, "unit": "%"},
      {"measurement": "inhibition", "setting": "[9]", "value": 93.1, "unit": "%"},
      {"measurement": "inhibition", "setting": "[10]", "value": 92.7, "unit": "%"},
      {"measurement": "Activity", "setting": "[11]", "value": "Active"},
      {"measurement": "GI50", "setting": "[12]", "value": 0.4, "unit": "nM"},
      {"measurement": "GI50", "setting": "[13]", "value": 60.5, "unit": "nM"},
      {"measurement": "GI50", "setting": "[14]", "value": 428, "unit": "nM"},
      {"measurement": "inhibition", "setting": "[15]", "value": "Active"},
      {"measurement": "Activity", "setting": "[16]", "value": "Active"},
      {"measurement": "Activity", "setting": "[17]", "value": "Active"},
      {"measurement": "inhibition at 1 µM", "setting": "[18]", "value": 50, "unit": "%"},
      {"measurement": "inhibition at 1 µM", "setting": "[19]", "value": 50, "unit": "%"},
      {"measurement": "inhibition (INH)", "setting": "[20]", "value": 50, "unit": "%"},
      {"measurement": "Activity", "setting": "[21]", "value": "Active"},
      {"measurement": "Activity", "setting": "[22]", "value": "Active"},
      {"measurement": "Activity", "setting": "[23]", "value": "Active"},
      {"measurement": "Activity", "setting": "[24]", "value": "Non-Toxic"},
      {"measurement": "inhibition", "setting": "[25]", "value": "Active"},
      {"measurement": "inhibition", "setting": "[26]", "value": "Active"},
      {"measurement": "inhibition", "setting": "[27]", "value": 100, "unit": "%"},
      {"measurement": "Activity", "setting": "[28]", "value": "Non-Toxic"}
    ]}
  ]
}
